{"source": "paper PMC12700101", "about": "(2025)", "key": {"[1]": {"test_system": "Dopamine DBS FAM(+T)/BHQ-1 (term.) (DNA, aptamer, 6-FAM-modified dT (click, i6-FAMK) at 33) AAATACAACAAGAAAAAACTCTCGGGACGACGTCCAGTTTGAAGGTTCGTTCGCAGGTGTGGAGTGACGTCGTCCC", "experiment": "fluorescence melting", "conditions": "1x PBS, 2 mM MgCl2; pH 8.0; 50 µM dopamine; derived from two Tm (48.4, 48.3); displacement strand 1:4"}, "[2]": {"test_system": "Dopamine MAB FAM–Dab (DNA, aptamer, dabcyl-5-methyl-dC at 41 (3' end)) ACGCCAGTTTGAAGGTTCGTTCGCAGGTGTGGAGTGACGTC", "experiment": "fluorescence quenching titration (molecular aptamer beacon)", "conditions": "1x PBS, 2 mM MgCl2; apparent; pH 8.0, 25 °C"}, "[3]": {"test_system": "Dopamine MAB Cy3–BHQ-2 (DNA, aptamer) ACGCCAGTTTGAAGGTTCGTTCGCAGGTGTGGAGTGACGT", "experiment": "fluorescence quenching titration (molecular aptamer beacon)", "conditions": "1x PBS, 2 mM MgCl2; apparent; pH 8.0, 25 °C"}, "[4]": {"test_system": "Dopamine DBS FAM(+T)–IABkFQ (DNA, aptamer, 6-FAM-dT (azide click) at 33) AAATACAACAAGAAAAAACTCTCGGGACGACGTACCAGTTTGAAGGTTCGTTCGCAGGTGTGGAGTGACGTCGTCCC", "experiment": "fluorescence strand-displacement titration", "conditions": "1x PBS, 2 mM MgCl2; apparent; pH 8.0, 25 °C; displaced 42-nt 5'-IABkFQ strand, 4 eq"}, "[5]": {"test_system": "Dopamine DBS FAM(+T)/BHQ-1 (int.) (DNA, aptamer, 6-FAM-modified dT (click, i6-FAMK) at 33) AAATACAACAAGAAAAAACTCTCGGGACGACGTCCAGTTTGAAGGTTCGTTCGCAGGTGTGGAGTGACGTCGTCCC", "experiment": "fluorescence melting", "conditions": "1x PBS, 2 mM MgCl2; pH 8.0; 50 µM dopamine; derived from two Tm (49.1, 49.3); displacement strand 1:4"}, "[6]": {"test_system": "Dopamine MAB Cy3–BHQ-2 (DNA, aptamer) ACGCCAGTTTGAAGGTTCGTTCGCAGGTGTGGAGTGACGT", "experiment": "fluorescence melting", "conditions": "1x PBS, 2 mM MgCl2; derived from two Tm (49.4 ± 0.8, 53.3 ± 0.8); 50 µM dopamine, pH 8.0"}, "[7]": {"test_system": "Dopamine DBS Cy3–BHQ-1 (Position 2) (DNA, aptamer) AAATACAACAAGAAAAAACTCTCGGGACGACGACCAGTTTGAAGGTTCGTTCGCAGGTGTGGAGTGACGTCGTCCC", "experiment": "fluorescence strand-displacement titration", "conditions": "1x PBS, 2 mM MgCl2; apparent; pH 8.0, 25 °C; displaced 42-nt strand, internal BHQ-1 (position 2), 4 eq"}, "[8]": {"test_system": "Dopamine MAB Cy3–Dab (DNA, aptamer, dabcyl-5-methyl-dC at 41 (3' end)) ACGCCAGTTTGAAGGTTCGTTCGCAGGTGTGGAGTGACGTC", "experiment": "fluorescence melting", "conditions": "1x PBS, 2 mM MgCl2; derived from two Tm (43.3 ± 1.0, 53.6 ± 0.3); 50 µM dopamine, pH 8.0"}, "[9]": {"test_system": "Dopamine DBS Cy3/Cy5 – No (position 3) (DNA, aptamer) AAATACAACAAGAAAAAACTCTCGGGACGACGACCAGTTTGAAGGTTCGTTCGCAGGTGTGGAGTGACGTCGTCCC", "experiment": "fluorescence strand-displacement titration", "conditions": "1x PBS, 2 mM MgCl2; apparent; pH 8.0, 25 °C; displaced 42-nt 3'-biotin strand without quencher; 565 nm readout"}, "[10]": {"test_system": "Dopamine MAB FAM–Dab (DNA, aptamer, dabcyl-5-methyl-dC at 41 (3' end)) ACGCCAGTTTGAAGGTTCGTTCGCAGGTGTGGAGTGACGTC", "experiment": "fluorescence melting", "conditions": "1x PBS, 2 mM MgCl2; derived from two Tm (41.7 ± 0.2, 36.9 ± 0.1); 50 µM dopamine, pH 8.0"}, "[11]": {"test_system": "Dopamine DBS FAM(+T)–BHQ-1 (Position 1) (DNA, aptamer, 6-FAM-dT (azide click) at 33) AAATACAACAAGAAAAAACTCTCGGGACGACGTACCAGTTTGAAGGTTCGTTCGCAGGTGTGGAGTGACGTCGTCCC", "experiment": "fluorescence strand-displacement titration", "conditions": "1x PBS, 2 mM MgCl2; apparent; pH 8.0, 25 °C; displaced 42-nt 5'-BHQ-1 strand, 4 eq"}, "[12]": {"test_system": "Dopamine DBS Cy3/BHQ-1 (int.) (DNA, aptamer) AAATACAACAAGAAAAAACTCTCGGGACGACGCCAGTTTGAAGGTTCGTTCGCAGGTGTGGAGTGACGTCGTCCC", "experiment": "fluorescence melting", "conditions": "1x PBS, 2 mM MgCl2; pH 8.0; 50 µM dopamine; derived from two Tm (50.9, 50.4); displacement strand 1:4"}, "[13]": {"test_system": "Dopamine DBS FAM(+T)–BHQ-1 Terminal (DNA, aptamer, 6-FAM-dT (azide click) at 33) AAATACAACAAGAAAAAACTCTCGGGACGACGTACCAGTTTGAAGGTTCGTTCGCAGGTGTGGAGTGACGTCGTCCC", "experiment": "fluorescence strand-displacement titration", "conditions": "1x PBS, 2 mM MgCl2; apparent; pH 8.0, 25 °C; displaced 43-nt strand, 5'-BHQ-1 plus T, 4 eq"}, "[14]": {"test_system": "Dopamine DBS Cy3(+T)–IABkFQ (DNA, aptamer) AAATACAACAAGAAAAAACTCTCGGGACGACGTACCAGTTTGAAGGTTCGTTCGCAGGTGTGGAGTGACGTCGTCCC", "experiment": "fluorescence strand-displacement titration", "conditions": "1x PBS, 2 mM MgCl2; apparent; pH 8.0, 25 °C; displaced 42-nt 5'-IABkFQ strand, 4 eq"}, "[15]": {"test_system": "Dopamine DBS Cy3–BHQ-1 (Position 1/Adjacent) (DNA, aptamer) AAATACAACAAGAAAAAACTCTCGGGACGACGACCAGTTTGAAGGTTCGTTCGCAGGTGTGGAGTGACGTCGTCCC", "experiment": "fluorescence strand-displacement titration", "conditions": "1x PBS, 2 mM MgCl2; apparent; pH 8.0, 25 °C; displaced CGTCGTCCCCTCTTCACATATCTATTTTTTCTTGTTGTATTT, 4 eq, 5'-BHQ-1"}}, "data": [{"smiles": "NCCc1ccc(O)c(O)c1", "values": [{"measurement": "Tm", "setting": "[1]", "result": -0.1, "unit": "°C"}, {"measurement": "Kd", "setting": "[2]", "result": "3.2 ± 0.2", "unit": "µM"}, {"measurement": "Kd", "setting": "[3]", "result": "12.4 ± 2.0", "unit": "µM"}, {"measurement": "Kd", "setting": "[4]", "result": "19.6 ± 0.9", "unit": "µM"}, {"measurement": "Tm", "setting": "[5]", "result": 0.2, "unit": "°C"}, {"measurement": "Tm", "setting": "[6]", "result": 3.9, "unit": "°C"}, {"measurement": "Kd", "setting": "[7]", "result": "2.2 ± 0.7", "unit": "µM"}, {"measurement": "Tm", "setting": "[8]", "result": 10.3, "unit": "°C"}, {"measurement": "Kd", "setting": "[9]", "result": "9.9 ± 3.6", "unit": "µM"}, {"measurement": "Tm", "setting": "[10]", "result": -4.8, "unit": "°C"}, {"measurement": "Kd", "setting": "[11]", "result": "6.1 ± 0.7", "unit": "µM"}, {"measurement": "Tm", "setting": "[12]", "result": -0.5, "unit": "°C"}, {"measurement": "Kd", "setting": "[13]", "result": "10.2 ± 1.0", "unit": "µM"}, {"measurement": "Kd", "setting": "[14]", "result": "41.8 ± 5.0", "unit": "µM"}, {"measurement": "Kd", "setting": "[15]", "result": "229.9 ± 22.0", "unit": "µM"}]}]}
